Source: the NIST ThermoML archive (doi:10.1016/j.jct.2005.12.007)
± gives the expanded uncertainty stated by the source.

Settings: 298.15 K, 101.33 kPa, Liquid; for viscosity: Capillary tube (Ostwald / Ubbelohde) method; for mass density: Pycnometric method; for speed of sound: Sing-around technique in a fixed-path interferometer

Row | Compound | viscosity | mass density | speed of sound
1 | CCCCN [1-butanamine] | 0.486 ± 0.007 mPa·s | 733.3 ± 1 kg/m3 | 1249.7 ± 2.2 m/s
2 | CCCCNCCCC [dibutylamine] | 0.821 ± 0.008 mPa·s | 757.53 ± 0.74 kg/m3 | 1243.4 ± 1.4 m/s
3 | CCCCN(CCCC)CCCC [tributylamine] | 1.258 ± 0.012 mPa·s | 773.56 ± 0.76 kg/m3 | 1245.3 ± 1.4 m/s
